Data: patent publication US20180371550A1, “LOSS OF TRANSCRIPTIONAL FIDELITY LEADS TO IMMUNOTHERAPY RESISTANCE IN CANCERS” (Children's Hospital Medical Center, priority 2015, published 2018)

Columns and labels:
[1] = test system: Cal51 cells; assay: STAT1 activation after IFN-α stimulation in flavopiridol-treated cells; type: cell-based; conditions: flavopiridol for 48 hours, then IFN-α for 30 minutes, FIG. 15H
Protocol: Total proteins were extracted with RIPA buffer (Santa Cruz Biotechnology, sc-24948), and 15 μg protein from each sample was run in a 4-18% SDS polyacrylamide gel (Bio-Rad), and transferred onto polyvinylidene difluoride membranes. The membranes were blocked in 5% dry milk in tris-buffered saline—Tween 20 for 1 hour. Blocked membranes were incubated overnight with primary antibodies against pSer5-RNA polymerase II (1:1000, Active motif), pSer2-RNA polymerase II (1:1000, Active motif), RNA polymerase II (1:1000, Active motif), SETD2 (1:1000, abcam), CyclinT1 (1:1000, Santa Cruz), H3K36me3 (1:5000, abcam), H3K27me3 (1:5000, Active motif), Pan-acetyl-H3 (1:5000, Cell Signaling), Histone H3 (1:5000, Cell Signaling), pMAPK (1;1000, Cell Signaling), MAPK (1;1000, Cell Signaling), pAKT (1:1000, Cell Signaling), STAT1 (1:1000, Cell Signaling), pSTAT1 (1:1000, Cell Signaling), NF-κB (1:1000, Cell Signaling), pNF-κB (1:1000), Cleaved-PARP(1:1000, Cell Signaling), Caspase-3 (1;1000, Cell Signaling), β-Actin (1;1000, Cell Signaling), GAPDH (1:1000, Cell Signaling) in 5% bovine serum albumin. After washing and incubating with the appropriate secondary antibody (anti-rabbit IgG or anti-Rat IgG (1:5000, Cell signaling)), protein signals were detected with enhanced chemiluminescence (Millipore). […]

[2] = test system: Cal51 and T47D cells; assay: Immunoblot of RNAP II and histone marks in cells treated with flavopiridol; type: cell-based; conditions: increasing sublethal doses of flavopiridol for 48 hours, FIG. 15G
Protocol: Total proteins were extracted with RIPA buffer (Santa Cruz Biotechnology, sc-24948), and 15 μg protein from each sample was run in a 4-18% SDS polyacrylamide gel (Bio-Rad), and transferred onto polyvinylidene difluoride membranes. The membranes were blocked in 5% dry milk in tris-buffered saline—Tween 20 for 1 hour. Blocked membranes were incubated overnight with primary antibodies against pSer5-RNA polymerase II (1:1000, Active motif), pSer2-RNA polymerase II (1:1000, Active motif), RNA polymerase II (1:1000, Active motif), SETD2 (1:1000, abcam), CyclinT1 (1:1000, Santa Cruz), H3K36me3 (1:5000, abcam), H3K27me3 (1:5000, Active motif), Pan-acetyl-H3 (1:5000, Cell Signaling), Histone H3 (1:5000, Cell Signaling), pMAPK (1;1000, Cell Signaling), MAPK (1;1000, Cell Signaling), pAKT (1:1000, Cell Signaling), STAT1 (1:1000, Cell Signaling), pSTAT1 (1:1000, Cell Signaling), NF-κB (1:1000, Cell Signaling), pNF-κB (1:1000), Cleaved-PARP(1:1000, Cell Signaling), Caspase-3 (1;1000, Cell Signaling), β-Actin (1;1000, Cell Signaling), GAPDH (1:1000, Cell Signaling) in 5% bovine serum albumin. After washing and incubating with the appropriate secondary antibody (anti-rabbit IgG or anti-Rat IgG (1:5000, Cell signaling)), protein signals were detected with enhanced chemiluminescence (Millipore).

[3] = test system: Cal51 cells; assay: Cytotoxicity assay: relative viability after FasL stimulation with flavopiridol pre-treatment; type: cell-based; conditions: 24 hours FasL, 48 hour pre-treatment with 100 μM flavopiridol, FIG. 15I
Protocol: Equal number of cells was seeded into the wells of 96-well culture plates in their corresponding medium and incubated overnight in a 5% CO2 humidified incubator. Cells were then treated with different concentrations of hhis6FasL (0.1 ng/ml-1000 ng/ml) in the presence of 10 μg/ml anti-His antibody (Cell Signaling) for 24 hours. Dead cells were removed by washing with PBS buffer and the attached cells were fixed and stained with crystal violet solution [20% methanol, 0.5% crystal violet (Sigma) in 1× phosphate-buffered saline (PBS)] for 30 min. Excess stain was removed by gently rinsing the plates in tap water, and the plates were dried at room temperature. Crystal violet crystals were redissolved in Triton (Amresco), and cell density was determined by measuring the absorbance at 570 nm in a microplate reader (Bio-Tek Instruments).

[4] = test system: B16/F10 mouse melanoma cells; assay: Testing NK-mediated tumor cell killing in vivo (lung seeding of B16-OVA cells); design: species or system C57BL6 mice; conditions: FIG. 15J
Protocol: C57Bl/6 mice were injected with control or flavopiridol (100 μM) treated 2×10^5 B16-OVA cells into tail veins. One hour later, the lungs were harvested, digested in liberase and the frequency of tumor cells was assessed using quantitative PCR (Shehata et al., 2015). mRNA levels for OVA (B16-OVA) were assessed and normalized to GAPDH. […] Six mice for each group were used. The protocol and use of mice were performed with the approval of the Cincinnati Children's Institutional Animal Care and Use Committee.

CN1CC[C@H](c2c(O)cc(O)c3c(=O)cc(-c4ccccc4Cl)oc23)[C@H](O)C1 [flavopiridol]
response to pro-inflammatory stimuli (STAT1 activation) [1]: resistance to pro-inflammatory stimuli | RNAP II and histone marks (epigenetic and transcriptional defects) [2]: widespread epigenetic and transcriptional defects | relative viability after FasL challenge [3]: resistance to pro-inflammatory stimuli and FasL challenge | lung seeding of B16 cells (OVA mRNA normalized to GAPDH, qPCR) ([4]; B16-OVA cells treated with flavopiridol (100 μM), tail vein injection into C57Bl/6 mice, lungs after 1 hour, vs control cells): significantly increased the ability of B16 cells for lung seeding | lung seeding of B16 cells in NK-depleted mice ([4]; as E4, mice pre-injected with anti-asialo GM1 (NK depletion)): the effect was diminished
